{"source": "patent US20090253126A1", "about": "“Biomarker Detection Assays” (ASTRAZENECA AB, priority 2004, published 2009)", "key": {"[1]": {"system": "Math1 transcript", "test": "Detection of Math1 transcript by quantitative real-time PCR in duodenum of treated rats", "type": "in vivo", "settings": "at earlier time points and at lower dose; Han Wistar rats, intraperitoneally, bid for 5 days", "experimental": "(§1) Using gene expression profiling we detected several deregulated factors that are consistent with Hes-1 KO data. We confirmed the up-regulation of ADN mRNA in intestinal tissue by DBZ and BZ treatment but not AS treatment. […] This up-regulation preceded the appearance of goblet cell metaplasia in the crypts.\n(§2) Compounds with varying potency for modulating the Notch1 pathway and causing intestinal metaplasia were injected intraperitoneally into rats twice daily for 5 days at a concentration of 10 μmol/kg, 30 μmol/kg and 100 μmol/kg. A section of duodenum was taken from untreated rats and those treated with compound. Samples were immediately frozen in liquid nitrogen then placed in a freezer maintained at −80° C. for preservation. […]\n(§3) Quantitative real-time PCR (QRT-PCR) was performed by creating a standard curve assaying the gene of interest at known cDNA quantities of 50 ng, 25 ng, 8.33 ng, 2.76 ng, 0.910 ng and 0.154 ng. […] Biosource International (Camarillo, Calif.) synthesized oligonucleotide primers and fluorescence resonance energy transfer (FRET) probes. […] The raw data were applied to the standard curve and quantities were extrapolated using Prism by GraphPad Software (San Diego, Calif.). These quantities were then transformed to express fold change relative to the vehicle control (VC)."}, "[2]": {"system": "Notch signal", "settings": "cited from earlier work"}, "[3]": {"system": "ADN mRNA", "test": "Gene expression profiling / QRT-PCR of adipsin (ADN) mRNA in intestinal tissue of treated rats", "type": "in vivo", "settings": "Han Wistar rats, intraperitoneally, 10, 30 and 100 μmol/kg/bid for 5 days", "experimental": "as §1, §2, §3"}}}
{"smiles": "C[C@H](NC(=O)Cc1cc(F)cc(F)c1)C(=O)N[C@@H]1C(=O)N(C)c2ccccc2-c2ccccc21", "note": "[DBZ]", "values": [{"measurement": "induction of Math1 compared with ADN", "setting": "[1]", "value": "markedly higher than ADN"}, {"measurement": "Notch signal interruption", "setting": "[2]", "value": "known to interrupt the Notch signal"}, {"measurement": "up-regulation of ADN mRNA in intestinal tissue", "setting": "[3]", "value": "up-regulation"}]}
